Source: patent publication US11299500B2, “Crystalline form of lorlatinib free base hydrate” (Pfizer Inc., priority 2017, dated 2022)

Legend:
[1] = Water sorption/desorption study by DVS; type: physicochemical
Procedure: A DVS method was employed to study the sorption/desorption behavior of Form 24.
Method: The method involved a standard sorption run from 0% RH to 90% RH, employing humidity rise at steps of 10% RH at 20° C., followed by a de-sorption run down to 0% RH and a second sorption/desorption cycle from 0% RH to 90% RH in 10% step change of RH at 20° C.

[2] = Physical stability in aqueous-based formulations; type: physicochemical; conditions: relative to anhydrous free base (Form 7) and acetic acid solvate (Form 3); e.g., topical formulations
[3] = system: anaplastic lymphoma kinase (ALK); conditions: wild type and resistance mutant forms, including ALK G1202R; cited from earlier work
[4] = system: c-ros oncogene 1 (ROS1) receptor tyrosine kinase; conditions: wild type and resistance mutant forms, including ROS1 G2032R; cited from earlier work
[5] = system: ALK-positive NSCLC xenograft models and intracranial ALK-positive tumor models; conditions: cited from earlier work
[6] = targeted relative humidity 0% RH, 20° C.
[7] = targeted relative humidity 10% RH, 20° C.
[8] = targeted relative humidity 20% RH, 20° C.
[9] = targeted relative humidity 30% RH, 20° C.
[10] = targeted relative humidity 40% RH, 20° C.
[11] = targeted relative humidity 50% RH, 20° C.
[12] = targeted relative humidity 60% RH, 20° C.
[13] = targeted relative humidity 70% RH, 20° C.
[14] = targeted relative humidity 80% RH, 20° C.
[15] = targeted relative humidity 90% RH, 20° C.

## C[C@H]1Oc2cc(cnc2N)-c2c(nn(C)c2C#N)CN(C)C(=O)c2ccc(F)cc21 [Form 24, (10R)-7-amino-12-fluoro-2,10,16-trimethyl-15-oxo-10,15,16,17-tetrahydro-2H-8,4-(metheno)pyrazolo[4,3-h][2,5,11]benzoxadiazacyclotetra-decine-3-carbonitrile (lorlatinib) Free Base Hydrate (Form 24)]
[1]; 0-90% RH, 20° C.
  hysteresis of de-sorption isotherms with respect to sorption isotherm: very little hysteresis
[1]; [6]
  % Water First Cycle: 0.00%
  % Water Second Cycle: 0.00%
[1]; [7]
  % Water First Cycle: 0.06%
  % Water Second Cycle: 0.06%
[1]; [8]
  % Water First Cycle: 0.13%
  % Water Second Cycle: 0.13%
[1]; [9]
  % Water First Cycle: 0.19%
  % Water Second Cycle: 0.20%
[1]; [10]
  % Water First Cycle: 0.27%
  % Water Second Cycle: 0.27%
[1]; [11]
  % Water First Cycle: 0.34%
  % Water Second Cycle: 0.35%
[1]; [12]
  % Water First Cycle: 0.43%
  % Water Second Cycle: 0.44%
[1]; [13]
  % Water First Cycle: 0.52%
  % Water Second Cycle: 0.54%
[1]; [14]
  % Water First Cycle: 0.64%
  % Water Second Cycle: 0.65%
[1]; [15]
  % Water First Cycle: 0.78%
  % Water Second Cycle: 0.78%
[1]; water level change between dry and wet state
  change of mass between a dry and wet state: below 1%
[2]
  physical stability in aqueous-based formulations: improved physical stability

## C[C@H]1Oc2cc(cnc2N)-c2c(nn(C)c2C#N)CN(C)C(=O)c2ccc(F)cc21 [Lorlatinib, (10R)-7-amino-12-fluoro-2,10,16-trimethyl-15-oxo-10,15,16,17-tetra-hydro-2H-8,4-(metheno)pyrazolo[4,3-h][2,5,11]benzoxadiazacyclotetradecine-3-carbonitrile]
[3]
  potency against ALK: nanomolar potency
[4]
  potency against ROS1: nanomolar potency
[5]
  antitumor activity: demonstrated antitumor activity
